Here are results for 1 compound from US7253175B2, “Method for treating athlete's foot” (priority 2003, dated 2007).

This assay deals with athlete's foot (fungal infection of toe nails and skin of the feet). The experiment in a line: Treatment of a patient with athlete's foot (case example). The class given is in vivo, human. The text has this:
Fungal infections, including tineapedis (fungal infections on the feet), tineamanus (fungal infections on the hands) and tineacorporis (fungal infections on the body), are diagnosed by methods or tests commonly conducted by a person of ordinary skill in the art. The common symptoms of such disease are described above. In the case of fungal infection on nails such as finger nails and toenails, the infected areas usually show thickening of the nails with white spots, while if the skin is infected, itching scaling, redness and/or blisters will appear. A laboratory test may be conducted by culturing a skin sample or nail sample in the infected area in an appropriate medium to observe the growth of fungi. The infections may also be identified by scraping the infected skin or nail and examining the such specimen under a microscope in the presence of potassium hydroxide, which assists to determine the presence of fungi.
A patient suffered from athlete's foot for four years. The patients toe nails had became whitening, thickening and cracking due to the infection. […] The patient was reported to experienced pain due to the thickening and cracking of the toe nails the swelling of the skin. […]

Structures are written as SMILES. Where a name gives a salt, the structure may show the parent alone.

In the case of `CC(C)[C@H](N)C(=O)OCCOCn1cnc2c(=O)[nH]c(N)nc21` [Valtrex, L-valine, 2-[(2-amino-1,6-dihydro-6-oxo-9H-purin-9-yl)methoxy]ethyl ester, monhydrochloride], the “laboratory test for fungal infections on the patient's toe nails and skin” value (after daily dosage of three grams divided into three times for seven days) is “no longer fungal infections”. For the same compound, the “symptoms of the patient's athlete's foot at the end of treatment” value (patient, about 230 pounds, daily dosage of three grams divided into three times for seven days) is “completely disappear”.
